The source of these data is patent publication US5514648A, “Fungicidally active compounds” (priority 1990, dated 1996).

Where a SMILES comes first, the peptide text is derived from it. [ ]: non-standard residue; d: D form. NMeI = CC[C@H](C)[C@H](NC)C(=O)O; NMeD = CN[C@@H](CC(=O)O)C(=O)O; NMeV = CN[C@H](C(=O)O)C(C)C; Pip = O=C(O)[C@@H]1CCCCN1; dLac = C[C@@H](O)C(=O)O Where only a bound is given, the exact number is not on record here.

Series [1] deals with Botrytis cinerea isolate B (resistant to BENLATE®, ROVRAL® and SUMISCLEX®). Nature of the series: In vitro agar growth assay, fungicide resistant Botrytis cinerea. The format is cell-based. The following applies: 3 days, 25 C, control 80. As to the method:
(§1) Activity against fungicide resistant Botrytis cinerea isolates One isolate resistant to BENLATE® (isolate A), and one isolate resistant to BENLATE®,ROVRAL® and SUMISCLEX® (isolate B) were isolated from plants which had been sprayed with the above mentioned pesticides. The effect of BK 202 on these isolates was determined in an in vitro assay and compared with the three commercial pesticides. The fungicides were added to agar and dispensed in petri dishes at different concentrations and were inoculated with a sensitive (normal(isolate C)) and the two resistant strains. After 3 days at a temperature of 25 C growth was measured in mm.

Series [2] relates to Botrytis cinerea isolate A (resistant to BENLATE®). Described as above. To be noted: 3 days, 25 C, control 76. Format: cell-based. As to the method:
as §1

Series [3] can be described thus: Toxicology IC50, Chemiluminescent. The following applies: estimated. How it is done:
Based on these tests the IC50 values for BK 202 were estimated as: Chemiluminescent >10 μg/ml

Series [4] has as its system P. teres. Nature of the series: Fungicidal activity, mycelial growth on potato dextrose agar. Format: cell-based, Pyrenophora teres. The following applies: in as low concentrations as 0.0016 μg/ml, 3 to 6 days. How it is done:
(§2) Experiments were carried out to determine the potency of the compound of formula IV towards various fungi. The active ingredient was dissolved in 60% ethanol and added to cooled potato dextrose agar to give final concentrations of 25, 5, 1, 0.2, 0.04 and 0.0016 μg a.i. per ml agar, respectively. Control dishes contained no active ingredient.
(§3) 10 ml Agar was poured into 9 cm petri dishes and each concentration was inoculated with actively growing mycelium of the fungal isolates tested for. The dishes were incubated at the optimum temperature for growth of the isolates for 3 to 6 days after which time the growth was measured in mm and compared to the controls.
(§4) The test isolates covered a broad range of fungi within the Oomycetes, the Ascomycetes, the Basidiornycetes, the Deuterornycetes, and the Zygomycetes.

Series [5] deals with Deuterornycetous species. The series is described as above. The format is cell-based, Deuterornycetes. To be noted: 25 to 0.0016 μg a.i. per ml agar. As to the method:
as §2, §3, §4

Series [6] has as its system Botrytis cinerea. In words: Green house trial, Botrytis cinerea on tomatoes (Matador). The following applies: at all the tested concentrations 0.01%, 0.03%, and 0.09% a.i. The format is in vivo. The source says: Green house trial performed in Lyngby, Denmark.
A plot consisted of 7 plants (approximately 12 weeks old, 1 m high) and three replicates were used. The plants were kept in a plastic "tent" to maintain a high humidity. Before spraying the plants 20 leaves per plant were mechanically injured to improve the attack of Botrytis cinerea. The active compound was used in a test formulation containing approximately 10% active ingredient (a.i.). Three concentrations of active compound were applied: 0.01%, 0.03%, and 0.09% a.i. The water volume was 770 ml/plot.
The tomatoes were sprayed just after wounding the leaves. 24 hours after fungicide treatment an artificial inoculation was done by spraying spores of B. cinerea suspended in 30% orange juice on the plants.
The commercial fungicide RONILAN®was used as standard reference.
The assessment was performed by counting the number of attacks on leaves, stalks, fruits, and flower buds.

For series [7], the system named is Botrytis cinerea isolate C (sensitive, normal). Nature of the series: In vitro agar growth assay, sensitive Botrytis cinerea. The format is cell-based. The following applies: 3 days, 25 C, control 74. As to the method:
as §1

Series [8] concerns Ascomycetous species. Nature of the series: Fungicidal activity, mycelial growth on potato dextrose agar. The format is cell-based, Ascomycetes. The following applies: 25 to 0.0016 μg a.i. per ml agar. As to the method: as §2, §3, §4
Series [9] can be described thus: Ames spot tests. The format is cell-based. To be noted: crystalline compound. An excerpt: The toxicity of BK 202 was investigated in the following tests using the compound of formula IV in crystaline form: […]
Ames spot tests and in vitro testing of dermal irritation (Skintex®).

Series [10] concerns A. fumigatus. In words: Fungicidal activity, mycelial growth on potato dextrose agar. The format is cell-based, Aspergillus fumigatus. To be noted: in as low concentrations as 0.0016 μg/ml, 3 to 6 days. How it is done: as §2, §3, §4
Series [11] deals with P. sorghina. The series is described as above. To be noted: 25 to 0.0016 μg a.i. per ml agar, 3 to 6 days. Format: cell-based, Phoma sorghina. As to the method:
as §2, §3, §4

For series [12], the system named is M. fructigena. The description is as above. Format: cell-based, Monilinia fructigena. The following applies: in as low concentrations as 0.0016 μg/ml, 3 to 6 days. As to the method:
as §2, §3, §4

For series [13], the system named is Basidiornycetous species. The description is as above. Format: cell-based, Basidiornycetes. To be noted: 25 to 0.0016 μg a.i. per ml agar. How it is done: as §2, §3, §4
For series [14], the system named is V. inequalis. The series is described as above. Format: cell-based, Venturia inequalis. To be noted: in as low concentrations as 0.0016 μg/ml, 3 to 6 days. As to the method:
as §2, §3, §4

The subject of series [15] is B. cinerea. The description is as above. The following applies: in as low concentrations as 0.0016 μg/ml, 3 to 6 days. Format: cell-based, Botrytis cinerea. How it is done: as §2, §3, §4
The test system of series [16] is Zygomycetous species. The description is as above. Format: cell-based, Zygomycetes. To be noted: 25 to 0.0016 μg a.i. per ml agar. As to the method:
as §2, §3, §4

The subject of series [17] is C. beticola. The series is described as above. To be noted: 25 to 0.0016 μg a.i. per ml agar, 3 to 6 days. The format is cell-based, Cercospora beticola. How it is done:
as §2, §3, §4

Setting [18] is: concentration 0.125 (unit not given).
Where [19] appears, read: concentration 2 (unit not given).
The mark [20] stands for this setting: concentration 10 (unit not given).

As for `CC[C@H](C)[C@H]1C(=O)NCC(=O)N(C)[C@@H](C(C)C)C(=O)N[C@@H](Cc2ccc(OC)cc2)C(=O)O[C@H](C)C(=O)N2CCCC[C@H]2C(=O)N(C)[C@@H](C(C)C)C(=O)N[C@@H](C(C)C)C(=O)N(C)[C@@H](CC(=O)O)C(=O)N(C)[C@@H](C(C)C)C(=O)N1C` [BK 202, cyclo- Pec-MeVal-Val-MeAsp-MeVal-MeIle-Gly-MeVal-TyrOMe-D-Lact!] (cyclo(G[NMeV]Y(Me)[dLac][Pip][NMeV]V[NMeD][NMeV][NMeI])), the “growth, Isolate B” value in series [1] (setting [18]), in series [1] (setting [19]) and in [1] (setting [20]) was 0 mm throughout. Moreover, the “growth, Isolate A” value in [2] (setting [18]), in [2] (setting [19]) and in series [2] (setting [20]) was 0 mm each time. For the same compound, the “IC50, Chemiluminescent” value in [3] is over 10 µg/mL. In addition, the inhibition of growth result in series [4] is “very strong”; in series [10] it was “very strong”; in series [11], “weaker”; in series [12] it was “very strong”; in series [14] it was “very strong”; in series [15] it was “very strong”. In addition, the inhibition of growth entry in series [17] is given as “weaker”. Also, the fungicidal activity result is reported as “most active” in series [5], “most active” in series [8], “practically no activity” in [13] and “Only weak activity” in series [16]. The “fungicidal effect (degree of infection, FIG. 10) compared to RONILAN®” value in series [6] is listed as “superior”. Besides, the “growth, Isolate C” value in [7] (setting [18]), in [7] (setting [19]) and in series [7] (setting [20]) was 0 mm each time. Also, the Ames spot tests entry in series [9] was “no indication of toxicity”.
